Laboratory results published in US20230085307A1, “PYRIDAZINONE COMPOUND AND HERBICIDE” (NISSAN CHEMICAL CORPORATION, priority 2019, published 2023).

What was measured:
[1] = system: wild oat; assay: Test Example 5: herbicidal effect by foliage application, plastic box (Table 20, symbol I); format: in vivo, wild oat (Avena fatua); details: foliage application, 320 g/ha, three weeks after application
Method in brief: (§1)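 Plants sown in sterilized diluvial soil and grown 14 days in a greenhouse at 25° C to 30° C, then sprayed on the foliage with the compound's emulsion diluted in water to a predetermined herbicide amount. Injury to weeds and crops scored three weeks after application on a visual rating scale.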

[2] = system: redroot pigweed; assay: Test Example 4: herbicidal effect by soil treatment (Table 19, symbol N); format: in vivo, redroot pigweed (Amaranthus retroflexus); details: amount of applied herbicide 320 g/ha
Method in brief: (§2)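 Seeds were sown in sterilized diluvial soil and covered with about 1.5 cm of soil. An emulsion formulation diluted with water to a predetermined herbicide amount was sprayed evenly onto the soil surface. Plants grew in a greenhouse at 25° C. to 30° C., and the effect was scored three weeks after application using criteria from an earlier test.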

[3] = system: persian speedwell; assay: Test Example 5: herbicidal effect by foliage application, plastic box (Table 20, symbol R); format: in vivo, Persian speedwell (Veronica persica); details: foliage application, 320 g/ha, three weeks after application
Method in brief: as §1

[4] = system: Japanese bulrush; assay: Test Example 1: herbicidal activity, application before weed generation under submerged conditions (Table 16, symbol B); format: in vivo, Japanese bulrush (Schoenoplectus juncoides); details: 320 g/ha applied herbicide
Method in brief: (§3)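 Submerged Wagner pots (alluvial soil, 4 cm water) sown with weed seeds and planted with 2.5-leaf rice seedlings; emulsifiable concentrate diluted in water applied to water surface on sowing day. Held in greenhouse at 25-30 °C; injury scored 0-5 by herbicidal rate after three weeks.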

[5] = system: southern crabgrass; assay: Test Example 5: herbicidal effect by foliage application, plastic box (Table 20, symbol F); format: in vivo, southern crabgrass (Digitaria ciliaris); details: foliage application, 320 g/ha, three weeks after application
Method in brief: as §1

[6] = system: false cleavers; assay: Test Example 5: herbicidal effect by foliage application, plastic box (Table 20, symbol Q); format: in vivo, false cleavers (Galium spurium); details: foliage application, 320 g/ha, three weeks after application
Method in brief: as §1

[7] = system: velvetleaf; assay: Test Example 4: herbicidal effect by soil treatment (Table 19, symbol M); format: in vivo, velvetleaf (Abutilon theophrasti); details: amount of applied herbicide 320 g/ha
Method in brief: as §2

[8] = system: persian speedwell; assay: Test Example 4: herbicidal effect by soil treatment (Table 19, symbol R); format: in vivo, Persian speedwell (Veronica persica); details: amount of applied herbicide 320 g/ha
Method in brief: as §2

[9] = system: velvetleaf; assay: Test Example 5: herbicidal effect by foliage application, plastic box (Table 20, symbol M); format: in vivo, velvetleaf (Abutilon theophrasti); details: foliage application, 320 g/ha, three weeks after application
Method in brief: as §1

[10] = system: lambsquarters; assay: Test Example 4: herbicidal effect by soil treatment (Table 19, symbol O); format: in vivo, lambsquarters (Chenopodium album); details: amount of applied herbicide 320 g/ha
Method in brief: as §2

[11] = system: oval-leafed pondweed; assay: Test Example 1: herbicidal activity, application before weed generation under submerged conditions (Table 16, symbol C); format: in vivo, oval-leafed pondweed (Monochoria vaginalis); details: 320 g/ha applied herbicide
Method in brief: as §3

[12] = system: lambsquarters; assay: Test Example 5: herbicidal effect by foliage application, plastic box (Table 20, symbol O); format: in vivo, lambsquarters (Chenopodium album); details: foliage application, 320 g/ha, three weeks after application
Method in brief: as §1

[13] = system: blackgrass; assay: Test Example 5: herbicidal effect by foliage application, plastic box (Table 20, symbol J); format: in vivo, blackgrass (Alopecurus myosuroides); details: foliage application, 320 g/ha, three weeks after application
Method in brief: as §1

[14] = system: wild oat; assay: Test Example 4: herbicidal effect by soil treatment (Table 19, symbol I); format: in vivo, wild oat (Avena fatua); details: amount of applied herbicide 320 g/ha
Method in brief: as §2

[15] = system: southern crabgrass; assay: Test Example 4: herbicidal effect by soil treatment (Table 19, symbol F); format: in vivo, southern crabgrass (Digitaria ciliaris); details: amount of applied herbicide 320 g/ha
Method in brief: as §2

[16] = system: blackgrass; assay: Test Example 4: herbicidal effect by soil treatment (Table 19, symbol J); format: in vivo, blackgrass (Alopecurus myosuroides); details: amount of applied herbicide 320 g/ha
Method in brief: as §2

[17] = system: chickweed; assay: Test Example 5: herbicidal effect by foliage application, plastic box (Table 20, symbol P); format: in vivo, common chickweed (Stellaria media); details: foliage application, 320 g/ha, three weeks after application
Method in brief: as §1

[18] = system: chickweed; assay: Test Example 4: herbicidal effect by soil treatment (Table 19, symbol P); format: in vivo, common chickweed (Stellaria media); details: amount of applied herbicide 320 g/ha
Method in brief: as §2

[19] = system: Chinese sprangletop; assay: Test Example 3: herbicidal effect by foliage application, Wagner pot (Table 18, symbol D); format: in vivo, chinese sprangletop (Leptochloa chinensis); details: 320 g/ha
Method in brief: (§4)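 Plants were sown in alluvial soil held under 0.1–0.5 cm standing water and grown 14 days in a greenhouse at 25–30 °C. An emulsifiable formulation, water-diluted to the set dose, was then sprayed onto the foliage, and effects were scored three weeks later using previously defined criteria.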

[20] = system: windgrass; assay: Test Example 5: herbicidal effect by foliage application, plastic box (Table 20, symbol L); format: in vivo, windgrass (Apera spica-venti); details: foliage application, 320 g/ha, three weeks after application
Method in brief: as §1

[21] = system: green foxtail; assay: Test Example 5: herbicidal effect by foliage application, plastic box (Table 20, symbol G); format: in vivo, green foxtail (Setaria viridis); details: foliage application, 320 g/ha, three weeks after application
Method in brief: as §1

[22] = system: Italian ryegrass; assay: Test Example 5: herbicidal effect by foliage application, plastic box (Table 20, symbol K); format: in vivo, Italian ryegrass (Lolium multiflorum); details: foliage application, 320 g/ha, three weeks after application
Method in brief: as §1

[23] = system: late watergrass; assay: Test Example 1: herbicidal activity, application before weed generation under submerged conditions (Table 16, symbol A); format: in vivo, late watergrass (Echinochloa oryzicola); details: 320 g/ha applied herbicide
Method in brief: as §3

[24] = system: false cleavers; assay: Test Example 4: herbicidal effect by soil treatment (Table 19, symbol Q); format: in vivo, false cleavers (Galium spurium); details: amount of applied herbicide 320 g/ha
Method in brief: as §2

[25] = system: barnyard grass; assay: Test Example 5: herbicidal effect by foliage application, plastic box (Table 20, symbol H); format: in vivo, barnyard grass (Echinochloa crus-galli); details: foliage application, 320 g/ha, three weeks after application
Method in brief: as §1

[26] = system: barnyard grass; assay: Test Example 4: herbicidal effect by soil treatment (Table 19, symbol H); format: in vivo, barnyard grass (Echinochloa crus-galli); details: amount of applied herbicide 320 g/ha
Method in brief: as §2

[27] = system: barnyard grass; assay: Test Example 3: herbicidal effect by foliage application, Wagner pot (Table 18, symbol H); format: in vivo, barnyard grass (Echinochloa crus-galli); details: 320 g/ha
Method in brief: as §4

[28] = system: green foxtail; assay: Test Example 4: herbicidal effect by soil treatment (Table 19, symbol G); format: in vivo, green foxtail (Setaria viridis); details: amount of applied herbicide 320 g/ha
Method in brief: as §2

[29] = system: windgrass; assay: Test Example 4: herbicidal effect by soil treatment (Table 19, symbol L); format: in vivo, windgrass (Apera spica-venti); details: amount of applied herbicide 320 g/ha
Method in brief: as §2

[30] = system: Italian ryegrass; assay: Test Example 4: herbicidal effect by soil treatment (Table 19, symbol K); format: in vivo, Italian ryegrass (Lolium multiflorum); details: amount of applied herbicide 320 g/ha
Method in brief: as §2

[31] = system: rice flat sedge; assay: Test Example 3: herbicidal effect by foliage application, Wagner pot (Table 18, symbol E); format: in vivo, rice flat sedge (Cyperus iria); details: 320 g/ha
Method in brief: as §4

[32] = system: redroot pigweed; assay: Test Example 5: herbicidal effect by foliage application, plastic box (Table 20, symbol N); format: in vivo, redroot pigweed (Amaranthus retroflexus); details: foliage application, 320 g/ha, three weeks after application
Method in brief: as §1

For `CCCC(=O)Oc1c(C)nn(C)c(=O)c1-c1c(-c2ccc(F)cc2OCC)sc2ccccc12` [1-062], the “herbicidal effect grade, I: wild oat” value [1] was 3 (Herbicidal rate of 40% or more and less than 70%), the “herbicidal effect rating, N: redroot pigweed” value [2] was 5 (Herbicidal rate of 90% or more (almost completely withered)) and the “herbicidal effect grade, R: persian speedwell” value [3] was 5 (Herbicidal rate of 90% or more (almost completely withered)). The “Herbicidal effect on B: Japanese bulrush (grade 0-5)” value [4] was 2 (Herbicidal rate of 20% or more and less than 40%), the “herbicidal effect grade, F: southern crabgrass” value [5] was 5 (Herbicidal rate of 90% or more (almost completely withered)) and the “herbicidal effect grade, Q: false cleavers” value [6] was 5 (Herbicidal rate of 90% or more (almost completely withered)). For the same compound, the “herbicidal effect rating, M: velvetleaf” value [7] was 3 (Herbicidal rate of 40% or more and less than 70%), the “herbicidal effect rating, R: persian speedwell” value [8] was 4 (Herbicidal rate of 70% or more and less than 90%) and the “herbicidal effect grade, M: velvetleaf” value [9] was 5 (Herbicidal rate of 90% or more (almost completely withered)). For the same compound, the “herbicidal effect rating, O: lambsquarters” value [10] was 0 (Herbicidal rate of 5% or less (almost no effect)), the “Herbicidal effect on C: oval-leafed pondweed (grade 0-5)” value [11] was 0 (Herbicidal rate of 5% or less (almost no effect)) and the “herbicidal effect grade, O: lambsquarters” value [12] was 3 (Herbicidal rate of 40% or more and less than 70%). For the same compound, the “herbicidal effect grade, J: blackgrass” value [13] was 5 (Herbicidal rate of 90% or more (almost completely withered)), the “herbicidal effect rating, I: wild oat” value [14] was 1 (Herbicidal rate of 5% or more and less than 20%) and the “herbicidal effect rating, F: southern crabgrass” value [15] was 5 (Herbicidal rate of 90% or more (almost completely withered)). The “herbicidal effect rating, J: blackgrass” value [16] was 5 (Herbicidal rate of 90% or more (almost completely withered)), the “herbicidal effect grade, P: chickweed” value [17] was 5 (Herbicidal rate of 90% or more (almost completely withered)) and the “herbicidal effect rating, P: chickweed” value [18] was 3 (Herbicidal rate of 40% or more and less than 70%). For the same compound, the “herbicidal effect on D (Chinese sprangletop), rating 0-5” value [19] was 3 (Herbicidal rate of 40% or more and less than 70%), the “herbicidal effect grade, L: windgrass” value [20] was 5 (Herbicidal rate of 90% or more (almost completely withered)) and the “herbicidal effect grade, G: green foxtail” value [21] was 5 (Herbicidal rate of 90% or more (almost completely withered)). For the same compound, the “herbicidal effect grade, K: Italian ryegrass” value [22] was 3 (Herbicidal rate of 40% or more and less than 70%), the “Herbicidal effect on A: late watergrass (grade 0-5)” value [23] was 2 (Herbicidal rate of 20% or more and less than 40%) and the “herbicidal effect rating, Q: false cleavers” value [24] was 5 (Herbicidal rate of 90% or more (almost completely withered)). For the same compound, the “herbicidal effect grade, H: barnyard grass” value [25] was 4 (Herbicidal rate of 70% or more and less than 90%), the “herbicidal effect rating, H: barnyard grass” value [26] was 4 (Herbicidal rate of 70% or more and less than 90%) and the “herbicidal effect on H (barnyard grass), rating 0-5” value [27] was 5 (Herbicidal rate of 90% or more (almost completely withered)). For the same compound, the “herbicidal effect rating, G: green foxtail” value [28] was 4 (Herbicidal rate of 70% or more and less than 90%), the “herbicidal effect rating, L: windgrass” value [29] was 3 (Herbicidal rate of 40% or more and less than 70%) and the “herbicidal effect rating, K: Italian ryegrass” value [30] was 4 (Herbicidal rate of 70% or more and less than 90%). For the same compound, the “herbicidal effect on E (rice flat sedge), rating 0-5” value [31] was 5 (Herbicidal rate of 90% or more (almost completely withered)) and the “herbicidal effect grade, N: redroot pigweed” value [32] was 5 (Herbicidal rate of 90% or more (almost completely withered)).
